PubChem BioAssay AID256 (DTP/NCI, 2004)
Values joined by “and” are separate entries in the source; they are usually repeats but may differ in a detail not shown here. Equal values may be shown once. Toxic doses and inconclusive results are not listed. How the source made its calls: active means survival T/C of 150% or more; inactive means T/C below 125% in these data.

System: CD2F1 mice, L1210 leukemia ip, survival T/C
Assay: NCI In Vivo Anticancer Drug Screen. Data for tumor model L1210 Leukemia (intraperitoneal) in CD2F1 (CDF1) mice
Conditions: higher = longer survival
Summary of the method: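 Activity against a transplanted murine tumor was judged by comparing the compound group with a vehicle group. The outcome in the treated animals was divided by that in the controls.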

Measured: T/C

Nc1ncn(C2OC(CO)C(O)C2O)c(=O)n1 (configuration not stated)
inactive: endpoint: mean survival time, dose: 1.56 mg/kg/injection, schedule: Q04DX003 (ip), vehicle: saline 117 % of control | endpoint: mean survival time, dose: 3.12 mg/kg/injection, schedule: Q04DX003 (ip), vehicle: saline 119 % of control and 120 % of control and 123 % of control | endpoint: mean survival time, dose: 6.25 mg/kg/injection, schedule: Q04DX003 (ip), vehicle: saline 121 % of control and 123 % of control | endpoint: mean survival time, dose: 10.0 mg/kg/injection, schedule: Q04DX003 (ip), vehicle: saline 112 % of control | endpoint: mean survival time, dose: 100.0 mg/kg/injection, schedule: Q03HX024 (ip), vehicle: saline 124 % of control
active: endpoint: mean survival time, dose: 1.56 mg/kg/injection, schedule: Q01DX009 (ip), vehicle: saline 155 % of control and 166 % of control | endpoint: mean survival time, dose: 3.12 mg/kg/injection, schedule: Q01DX009 (ip), vehicle: saline 176 % of control | endpoint: mean survival time, dose: 3.12 mg/kg/injection, schedule: Q03HX024 (ip), vehicle: saline 296 % of control | endpoint: mean survival time, dose: 6.25 mg/kg/injection, schedule: Q03HX024 (ip), vehicle: saline 325 % of control | endpoint: mean survival time, dose: 12.5 mg/kg/injection, schedule: Q03HX024 (ip), vehicle: saline 353 % of control | endpoint: mean survival time, dose: 12.5 mg/kg/injection, schedule: Q04DX003 (ip), vehicle: saline 151 % of control | endpoint: mean survival time, dose: 25.0 mg/kg/injection, schedule: Q03HX024 (ip), vehicle: saline 295 % of control | endpoint: mean survival time, dose: 25.0 mg/kg/injection, schedule: Q04DX003 (ip), vehicle: saline 167 % of control | endpoint: mean survival time, dose: 50.0 mg/kg/injection, schedule: Q03HX024 (ip), vehicle: saline 248 % of control | endpoint: mean survival time, dose: 50.0 mg/kg/injection, schedule: Q04DX003 (ip), vehicle: saline 163 % of control and 173 % of control | endpoint: mean survival time, dose: 200.0 mg/kg/injection, schedule: Q04DX003 (ip), vehicle: saline 182 % of control and 190 % of control and 200 % of control | endpoint: mean survival time, dose: 400.0 mg/kg/injection, schedule: Q04DX003 (ip), vehicle: saline 222 % of control | endpoint: mean survival time, dose: 800.0 mg/kg/injection, schedule: Q04DX003 (ip), vehicle: saline 269 % of control | endpoint: mean survival time, dose: 1600.0 mg/kg/injection, schedule: Q04DX003 (ip), vehicle: saline 222 % of control | endpoint: median survival time, dose: 1.56 mg/kg/injection, schedule: Q01DX009 (ip), vehicle: other 156 % of control | endpoint: median survival time, dose: 2.3 mg/kg/injection, schedule: Q03HX024 (ip), vehicle: DMSO 292 % of control | endpoint: median survival time, dose: 3.12 mg/kg/injection, schedule: Q01DX009 (ip), vehicle: other 163 % of control and 172 % of control | endpoint: median survival time, dose: 3.12 mg/kg/injection, schedule: Q01DX009 (ip), vehicle: saline 162 % of control and 177 % of control | endpoint: median survival time, dose: 4.0 mg/kg/injection, schedule: Q03HX024 (ip), vehicle: saline 348 % of control | endpoint: median survival time, dose: 6.25 mg/kg/injection, schedule: Q01DX009 (ip), vehicle: DMSO 210 % of control and 228 % of control | endpoint: median survival time, dose: 6.25 mg/kg/injection, schedule: Q01DX009 (ip), vehicle: other 192 % of control and 193 % of control | endpoint: median survival time, dose: 6.25 mg/kg/injection, schedule: Q01DX009 (ip), vehicle: saline 198 % of control and 202 % of control and 212 % of control | endpoint: median survival time, dose: 6.25 mg/kg/injection, schedule: Q01DX009 (oral), vehicle: DMSO 191 % of control | endpoint: median survival time, dose: 7.0 mg/kg/injection, schedule: Q03HX008 (ip), vehicle: DMSO 179 % of control | endpoint: median survival time, dose: 11.2 mg/kg/injection, schedule: Q01DX005 (ip), vehicle: DMSO 181 % of control | endpoint: median survival time, dose: 11.2 mg/kg/injection, schedule: Q01DX005 (iv), vehicle: DMSO 176 % of control | endpoint: median survival time, dose: 12.5 mg/kg/injection, schedule: Q01DX009 (ip), vehicle: DMSO 224 % of control and 258 % of control | endpoint: median survival time, dose: 12.5 mg/kg/injection, schedule: Q01DX009 (ip), vehicle: other 214 % of control and 219 % of control | endpoint: median survival time, dose: 12.5 mg/kg/injection, schedule: Q01DX009 (oral), vehicle: DMSO 225 % of control | endpoint: median survival time, dose: 14.0 mg/kg/injection, schedule: Q03HX008 (ip), vehicle: DMSO 174 % of control | endpoint: median survival time, dose: 22.5 mg/kg/injection, schedule: Q01DX005 (ip), vehicle: DMSO 187 % of control | endpoint: median survival time, dose: 22.5 mg/kg/injection, schedule: Q01DX005 (iv), vehicle: DMSO 201 % of control
